The source of these data is US8268961B2, “Antibacterial peptides and analogues thereof” (Universita Degli Studi di Siena, priority 2004, dated 2012).

Like-named read-outs stand apart in the source and are kept apart here. Positions of bridges follow the written chain, without caps; N, C: chain ends. Chains are numbered I, II in the order given. No end group written: not given here.

Assay type in all cases: cell-based
The test system of assay [1] is Staphylococcus aureus ATCC 25923. The settings on record: Staphylococcus aureus ATCC 25923, reference strain. An excerpt: (§1) MIC is defined as the lowest concentration, in an antibiotic dilution range, that inhibits visible bacterial growth. The importance of MIC sensitivity test is based on the principle that in vitro sensitivity provides a predictive indication of the in vivo efficacy of the antibiotic therapy. Values are expressed as molar concentration and compared to MIC values obtained with commercially available antibiotics such as amikacin, ceftriaxone and levofloxacin (Table 3).
(§2) Reference strains (Escherichia coli ATCC 25922, Pseudomonas aeruginosa ATCC 27853, Staphylococus aureus ATCC 25923 and Chryseobacterium meningosepticum CCUG 4310) and several recent clinical isolates (including multidrug-resistant ones) of various species (Table 2) were used for conventional susceptibility testing experiments. Minimum Inhibitory Concentration (MIC) was determined by a standard microdilution assay as recommended by the National Commitee for Clinical Laboratory Standards (NCCLS) using cation-supplemented Mueller-Hinton (MH) broth (Oxoid Ltd. Basingstoke, UK) and a bacterial inoculum of 5×10^4 CFU per well, in a final volume of 100 μl. Results were recorded by visual inspection after 24 h of incubation at 37° C.

For assay [2], the system named is Pseudomonas aeruginosa ATCC27853.
Description: as §1, §2

Assay [3] deals with Escherichia coli ATCC 25922.
Description: as §1, §2

The mark [4] stands for this setting: Pseudomonas aeruginosa ATCC27853, reference strain.
The mark [5] stands for this setting: Escherichia coli ATCC 25922, reference strain.

As to `NCC[C@H](O)C(=O)N[C@@H]1C[C@H](N)[C@@H](O[C@H]2O[C@H](CN)[C@@H](O)[C@H](O)[C@H]2O)[C@H](O)[C@H]1O[C@H]1O[C@H](CO)[C@@H](O)[C@H](N)[C@H]1O` [AMIKACIN, amikacin, reference compound], the “MIC (Molarity)” value in assay [1] fell in the range of 0.85 to 6.8 µM; in assay [2] (setting [4]), 1.7 to 6.8 µM; in assay [3] (setting [5]), 1.7 to 6.8 µM.
As to `CO/N=C(\C(=O)N[C@@H]1C(=O)N2C(C(=O)O)=C(CSc3nc(=O)c(=O)[nH]n3C)CS[C@H]12)c1csc(N)n1` [CEFTRIAXONE, ceftriaxone, reference compound], the “MIC (Molarity)” value was in the range of 0.054 to 0.21 µM in assay [1], 1.7 to 14 µM in assay [2] (setting [4]) and 14 to 110 µM in assay [3] (setting [5]).
Taken in the same sequence, the figures for `C[C@H]1COc2c(N3CCN(C)CC3)c(F)cc3c(=O)c(C(=O)O)cn1c23` [LEVOFLOXACIN, levofloxacin, reference compound] were 0.022 to 16 µM, 0.16 to 1.3 µM and 1.3 to 11 µM.
As for “I: AKKIRVRLSAKKA-OH / II: AKKIRVRLSAK / III: AKKIRVRLSA / IV: AKKIRVRLSA (amide I:11-IV:C, I:12-II:C, II:11-III:C) [M31]”, the “MIC (Molarity)” value was over 12 µM in assay [1], 3 µM in assay [2] (ATCC27853) and 3 µM in assay [3] (ATCC 25922).
On to “I: QKAIRVRLSAKKA-OH / II: QKAIRVRLSAK / III: QKAIRVRLSA / IV: QKAIRVRLSA (amide I:11-IV:C, I:12-II:C, II:11-III:C) [M33, QKAIRVRLSA]”, for which the figures for the “MIC (Molarity)” value in assay [1], in assay [2] (setting [4]) and in assay [3] (setting [5]) were over 12 µM, 1.5 µM and 1.5 µM, respectively.
With “I: QKKARVRLSAKKA-OH / II: QKKARVRLSAK / III: QKKARVRLSA / IV: QKKARVRLSA (amide I:11-IV:C, I:12-II:C, II:11-III:C) [M34, QKKARVRLSA]”, the “MIC (Molarity)” value in assay [1] is over 12 µM; in assay [2] (ATCC27853) it was 12 µM; in assay [3] (setting [5]), over 12 µM.
For the molecule “I: QKKIAVRLSAKKA-OH / II: QKKIAVRLSAK / III: QKKIAVRLSA / IV: QKKIAVRLSA (amide I:11-IV:C, I:12-II:C, II:11-III:C) [M35, QKKIAVRLSA]”, the “MIC (Molarity)” value is over 12 µM in assay [1], 1.5 µM in assay [2] (ATCC27853) and 6 µM in assay [3] (ATCC 25922).
Taken in the same sequence, the figures for “I: QKKIRVALSAKKA-OH / II: QKKIRVALSAK / III: QKKIRVALSA / IV: QKKIRVALSA (amide I:11-IV:C, I:12-II:C, II:11-III:C) [M37]” were over 12 µM, 3 µM and 3 µM.
On the same counts, the results for “I: QKKIRVRLAAKKA-OH / II: QKKIRVRLAAK / III: QKKIRVRLAA / IV: QKKIRVRLAA (amide I:11-IV:C, I:12-II:C, II:11-III:C) [M39, QKKIRVRLAA]” are over 12 µM, 3 µM and 3 µM.
On to “I: QKRIRVRLSAKKA-OH / II: QKRIRVRLSAK / III: QKRIRVRLSA / IV: QKRIRVRLSA (amide I:11-IV:C, I:12-II:C, II:11-III:C) [M29, QKRIRVRLSA]”, for which the “MIC (Molarity)” value in assay [1] is over 12 µM; in assay [2] (ATCC27853) it was 6 µM; in assay [3] (ATCC 25922), 6 µM.
With “I: QRKIRVRLSAKKA-OH / II: QRKIRVRLSAK / III: QRKIRVRLSA / IV: QRKIRVRLSA (amide I:11-IV:C, I:12-II:C, II:11-III:C) [M28]”, the “MIC (Molarity)” value in assay [1] was over 12 µM; in assay [2] (setting [4]), 0.76 µM; in assay [3] (setting [5]), 0.38 µM.
